Assay results from US5932742A, “Arylsulfonylimidazolone derivatives as an antitumor agent” (priority 1996, dated 1999).
Converted amounts (≈) assume the structure as drawn. Like-named read-outs stand apart in the source and are kept apart here.

Key:
Type in all cases: cell-based
[1] = tested on: SK-OV-3 (ATCC HTB 77): human ovarian adenocarcinoma; assay: In vitro antitumor activity, MTT assay, SK-OV-3; settings: Homo sapiens
Experimental: (§1) In vitro antitumor activity against human tumor cell lines
(§2) In vitro antitumor activity of the compounds according to the present invention was determined by MTT assay method against the following human tumor cell lines:
SK-OV-3 (ATCC HTB 77): human ovarian adenocarcinoma
(§3) In this test, the known antineoplastic compounds, Doxorubicin and Sulofenur, were used as the comparative agents.
(§4) Each of the tumor cells was cultured in RPMI 1640 media containing 10% fetal bovine serum, 100 IU/ml penicillin and 100 μg/ml streptomycin, and then periodically subcultured once or twice per week in trypsin-EDTA solution containing 0.05% trypsin and 0.53mM EDTA.4Na. The human tumor cell line thus obtained (10,000cells/100 μl) was plated on 96-well microplate and then cultured for 24 hrs at 37° C. in a 5% CO2 incubator. Test compound was dissolved in DMSO, sterilized with 0.22 μm PVDF filter, and then serially 5-fold diluted from 40 μg/ml to 0.00256μg/ml. 100 μl of the sample solution thus prepared and RPMI 1640 medium only (control group) were added to 96-well microplate containing the human tumor cell, respectively. The final concentration of the test compound was in the range from 20 μg/ml to 0.00128 μg/ml and the concentration of DMSO was below 0.5%. The cells were cultured for 48 hrs at 37° C. in a 5% CO2 incubator. MTT(3-(4,5-Dimethylthiazole-2-yl)-e,5-diphenyltetrazoliumbromide) was dissolved in physiological saline in a concentration of 2 mg/ml and the resulting solution was filtered through 0.22 μm PTFE filter. 25 μl of MTT solution thus prepared was added to each well of 96-well microplate and incubated for additional 4 hrs at 37° C. in a 5% CO2 incubator. Then, the content of microplate was centrifuged at 1000 rpm for 10 min, and supernatant was removed by flicking. The formazan formed from MTT by mitochondrial succinate dehydrogenase was dissolved in 100 μl of DMSO. The absorbance of each well was measured at 540nm by micro ELISA reader and the cytotoxicity was calculated by dividing the absorbance of test group by the absorbance of control group. After the calculated cytotoxicity (%) was plotted, the concentration of 50% tumor growth inhibition concentration (IC50) was estimated by Linear-Regression method.

[2] = tested on: K562 (ATCC CCL 243): human chronic myelogenous leukemia; assay: In vitro antitumor activity, MTT assay, K562; settings: Homo sapiens, K562, 48 h
Experimental: as §1, §2
K562 (ATCC CCL 243): human chronic myelogenous leukemia
as §3, §4

[3] = tested on: A549 (ATCC CCL 185): human lung carcinoma; assay: In vitro antitumor activity, MTT assay, A549; settings: Homo sapiens, A549, 48 h
Experimental: as §1, §2
A549 (ATCC CCL 185): human lung carcinoma
as §3, §4

[4] = tested on: Colo205 (ATCC CCL 222): human colon adenocarcinoma; assay: In vitro antitumor activity, MTT assay, Colo205; settings: Homo sapiens
Experimental: as §1, §2
Colo205 (ATCC CCL 222): human colon adenocarcinoma
as §3, §4

[5] = COLO 205, Table 3, 48 hrs, read-out: IC50 (Col205)
[6] = COLO 205, Table 1, 48 hrs, read-out: IC50 (Colo205)

Compound | IC50 ([1]; SK-OV-3, Table 4, 48 hrs) [µg/mL] | IC50 ([2]; Table 4, read-out: IC50 (K562)) [µg/mL] | IC50 ([3]; Table 4) [µg/mL] | further results
O=C(c1cccc(Cl)c1)N1CCc2cc(S(=O)(=O)N3CC(c4ccccc4)NC3=O)ccc21 (stereo not shown) [Example 58, 4-phenyl-1-[N-(3-chlorobenzoyl)indoline-5-sulfonyl]-4,5-dihydro-2-imidazolone] | 2.6 (≈ 5.39 µM) | 7.04 (≈ 14.6 µM) | 1.62 (≈ 3.36 µM) | 
N#Cc1ccc(C(=O)N2CCc3cc(S(=O)(=O)N4CC(c5ccccc5)NC4=O)ccc32)cc1 (stereo not shown) [Example 56, 4-phenyl-1-[N-(4-cyanobenzoyl)indoline-5-sulfonyl]-4,5-dihydro-2-imidazolone] | 0.968 (≈ 2.05 µM) | 4.96 (≈ 10.5 µM) | 1.59 (≈ 3.36 µM) | 
O=C(c1ccccc1)N1CCc2cc(S(=O)(=O)N3CC(c4ccccc4)NC3=O)ccc21 (stereo not shown) [Example 47, 4-phenyl-1-(N-benzoylindoline-5-sulfonyl)-4,5-dihydro-2-imidazolone] | 0.26 (≈ 0.581 µM) | 1.84 (≈ 4.12 µM) | 0.196 (≈ 0.438 µM) | 
CCCNC(=S)N1CCc2cc(S(=O)(=O)N3CC(c4ccccc4)NC3=O)ccc21 (stereo not shown) [Example 40, 4-phenyl-1-(N-propylthiocarbamoylindoline-5-sulfonyl)-4,5-dihydro-2-imidazolone] |  |  |  | IC50 ([1]; SK-OV-3, Table 3, 48 hrs): 3.66 µg/mL (≈ 8.24 µM); IC50 ([2]; Table 3, read-out: IC50 (K562)): 0.337 µg/mL (≈ 0.758 µM); IC50 ([3]; Table 3): 0.245 µg/mL (≈ 0.551 µM)
CCCCNC(=S)N1CCc2cc(S(=O)(=O)N3CC(c4ccccc4)NC3=O)ccc21 (stereo not shown) [Example 41, 4-phenyl-1-(N-butylthiocarbamoylindoline-5-sulfonyl)-4 5-dihydro-2-imidazolone] |  |  |  | IC50 ([1]; SK-OV-3, Table 3, 48 hrs): 0.897 µg/mL (≈ 1.96 µM); IC50 ([2]; Table 3, read-out: IC50 (K562)): 2.05 µg/mL (≈ 4.48 µM); IC50 [4, 5]: 2.4 µg/mL (≈ 5.23 µM); IC50 ([3]; Table 3): 0.584 µg/mL (≈ 1.27 µM)
COc1ccc(NC(=S)N2CCc3cc(S(=O)(=O)N4CC(c5ccccc5)NC4=O)ccc32)cc1 (stereo not shown) [Example 43, 4-phenyl-1-[N-(4-methoxyphenyl)thiocarbamoylindoline-5-sulfonyl]-4,5-dihydro-2-imidazolone] |  |  |  | IC50 ([1]; SK-OV-3, Table 3, 48 hrs): 1.03 µg/mL (≈ 2.03 µM); IC50 ([2]; Table 3, read-out: IC50 (K562)): 1.28 µg/mL (≈ 2.52 µM); IC50 ([3]; Table 3): 1.27 µg/mL (≈ 2.49 µM)
CCCNC(=O)N1CCc2cc(S(=O)(=O)n3cc(-c4ccccc4)[nH]c3=O)ccc21 [Example 4, 4-phenyl-1-(N-propylcarbamoylindoline-5-sulfonyl)-2-imidazolone] |  |  |  | IC50 ([1]; SK-OV-3, Table 1, 48 hrs): < 0.00128 µg/mL; IC50 [4, 6]: < 0.00128 µg/mL; IC50 ([3]; Table 1): 0.052 µg/mL (≈ 0.122 µM)
O=C(c1ccc(F)cc1F)N1CCc2cc(S(=O)(=O)N3CC(c4ccccc4)NC3=O)ccc21 (stereo not shown) [Example 61, 4-phenyl-1-[N-(2,4-difluorobenzoyl)indoline-5-sulfonyl]-4,5-dihydro-2-imidazolone] | 1.52 (≈ 3.14 µM) | 5.66 (≈ 11.7 µM) | 1.94 (≈ 4.01 µM) | 
O=C(c1cccc(F)c1)N1CCc2cc(S(=O)(=O)N3CC(c4ccccc4)NC3=O)ccc21 (stereo not shown) [Example 60, 4-phenyl-1-[N-(3-fluorobenzoyl)indoline-5-sulfonyl]-4,5-dihydro-2-imidazolone] | 8.51 (≈ 18.3 µM) | 0.619 (≈ 1.33 µM) | 0.328 (≈ 0.705 µM) | 
O=C(c1ccc(OC(F)(F)F)cc1)N1CCc2cc(S(=O)(=O)N3CC(c4ccccc4)NC3=O)ccc21 (stereo not shown) [Example 64, 4-phenyl-1-[N-(4-trifluoromethoxybenzoyl)indoline-5-sulfonyl]-4,5-dihydro-2-imidazolone] | 2.96 (≈ 5.56 µM) |  | 0.695 (≈ 1.31 µM) | 
O=C(c1ccc(F)cc1)N1CCc2cc(S(=O)(=O)N3CC(c4ccccc4)NC3=O)ccc21 (stereo not shown) [Example 54, 4-phenyl-1-[N-(4-fluorobenzoyl)indoline-5-sulfonyl]-4,5-dihydro-2-imidazolone] | 2.33 (≈ 5 µM) | 3.64 (≈ 7.83 µM) | 0.59 (≈ 1.27 µM) | 
C=CCNC(=O)N1CCc2cc(S(=O)(=O)N3CC(c4ccccc4)NC3=O)ccc21 (stereo not shown) [Example 32, 4-phenyl-1-(N-allylcarbamoylindoline-5-sulfonyl)-4,5-dihydro-2-imidazolone] |  |  |  | IC50 ([1]; SK-OV-3, Table 3, 48 hrs): 0.685 µg/mL (≈ 1.61 µM); IC50 [4, 5]: 7.1 µg/mL (≈ 16.6 µM); IC50 ([3]; Table 3): 0.042 µg/mL (≈ 0.0985 µM)
O=C(c1ccc([N+](=O)[O-])cc1)N1CCc2cc(S(=O)(=O)N3CC(c4ccccc4)NC3=O)ccc21 (stereo not shown) [Example 55, 4-phenyl-1-[N-(4-nitrobenzoyl)indoline-5-sulfonyl]-4,5-dihydro-2-imidazolone] | 2.09 (≈ 4.24 µM) | 8.88 (≈ 18 µM) | 1.7 (≈ 3.45 µM) | 
COc1ccc(C(=O)N2CCc3cc(S(=O)(=O)N4CC(c5ccccc5)NC4=O)ccc32)cc1OC (stereo not shown) [Example 51, 4-phenyl-1-[N-(3,4-dimethoxybenzoyl)indoline-5-sulfonyl]-4,5-dihydro-2-imidazolone] | 12.1 (≈ 23.9 µM) | 0.218 (≈ 0.429 µM) | 1.65 (≈ 3.25 µM) | 
COc1ccc(C(=O)N2CCc3cc(S(=O)(=O)N4CC(c5ccccc5)NC4=O)ccc32)cc1 (stereo not shown) [Example 50, 4-phenyl-1-[N-(4-methoxybenzoyl)indoline-5-sulfonyl]-4,5-dihydro-2-imidazolone] | 1.37 (≈ 2.87 µM) | 2.19 (≈ 4.58 µM) | 1.56 (≈ 3.28 µM) | 
O=C(c1ccccc1O)N1CCc2cc(S(=O)(=O)N3CC(c4ccccc4)NC3=O)ccc21 (stereo not shown) [Example 49, 4-phenyl-1-[N-(2-hydroxybenzoyl)indoline-5-sulfonyl]-4,5-dihydro-2-imidazolone] | 0.591 (≈ 1.28 µM) | 5.71 (≈ 12.3 µM) | 0.638 (≈ 1.38 µM) | 
Cc1ccc(C(=O)N2CCc3cc(S(=O)(=O)N4CC(c5ccccc5)NC4=O)ccc32)cc1 (stereo not shown) [Example 48, 4-phenyl-1-[N-(4-methylbenzoyl)indoline-5-sulfonyl]-4,5-dihydro-2-imidazolone] | > 20 | 2.4 (≈ 5.2 µM) | 1.74 (≈ 3.76 µM) | 
CC(C)NC(=O)N1CCc2cc(S(=O)(=O)n3cc(-c4ccccc4)[nH]c3=O)ccc21 [Example 6, 4-phenyl-1-(N-isopropylcarbamoylindoline-5-sulfonyl)-2-imidazolone] |  |  |  | IC50 ([1]; SK-OV-3, Table 1, 48 hrs): < 0.00128 µg/mL; IC50 [4, 6]: < 0.00128 µg/mL; IC50 ([3]; Table 1): < 0.00128 µg/mL

The next lines start with results.

IC50 ([1]; SK-OV-3, Table 4, 48 hrs) [µg/mL] | IC50 ([2]; Table 4, read-out: IC50 (K562)) [µg/mL] | IC50 ([3]; Table 4) [µg/mL] | Compound | further results
5.97 (≈ 12.4 µM) | 0.594 (≈ 1.23 µM) | 0.774 (≈ 1.61 µM) | O=C(c1ccc(Cl)cc1)N1CCc2cc(S(=O)(=O)N3CC(c4ccccc4)NC3=O)ccc21 (stereo not shown) [Example 53, 4-phenyl-1-[N-(4-chlorobenzoyl)indoline-5-sulfonyl]-4,5-dihydro-2-imidazolone] | 
16.5 (≈ 32 µM) | 1.88 (≈ 3.64 µM) | 2.02 (≈ 3.92 µM) | O=C(c1cc(Cl)cc(Cl)c1)N1CCc2cc(S(=O)(=O)N3CC(c4ccccc4)NC3=O)ccc21 (stereo not shown) [Example 59, 4-phenyl-1-[N-(3,5-dichlorobenzoyl)indoline-5-sulfonyl]-4,5-dihydro-2-imidazolone] | 
11.3 (≈ 21.4 µM) |  | 2.74 (≈ 5.15 µM) | O=C(c1cccc(OC(F)(F)F)c1)N1CCc2cc(S(=O)(=O)N3CC(c4ccccc4)NC3=O)ccc21 (stereo not shown) [Example 63, 4-phenyl-1-[N-(3-trifluoromethoxybenzoyl)indoline-5-sulfonyl]-4,5-dihydro-2-imidazolone] | 
11.8 (≈ 22.8 µM) | 1.37 (≈ 2.65 µM) | 2.18 (≈ 4.24 µM) | O=C(c1cccc(C(F)(F)F)c1)N1CCc2cc(S(=O)(=O)N3CC(c4ccccc4)NC3=O)ccc21 (stereo not shown) [Example 62, 4-phenyl-1-[N-(3-trifluoromethylbenzoyl)indoline-5-sulfonyl]-4,5-dihydro-2-imidazolone] | 
2.22 (≈ 4.51 µM) |  | 0.101 (≈ 0.205 µM) | CCOc1ccc(C(=O)N2CCc3cc(S(=O)(=O)N4CC(c5ccccc5)NC4=O)ccc32)cc1 (stereo not shown) [Example 52, 4-phenyl-1-[N-(4-ethoxybenzoyl)indoline-5-sulfonyl]-4,5-dihydro-2-imidazolone] | 
